Activity calls are given as the source filed them. The calls are words filed in the database; no cut-off is given here.
Key:
Platelet [1] = assay: Inhibition of U46619-induced platelet aggregation in rabbit platelet-rich plasma at 100 ug/mL by turbidimetric method; assay type: functional, cell-free; conditions: Oryctolagus cuniculus
Platelet [2] = assay: Inhibition of thrombin-induced platelet aggregation in rabbit platelet-rich plasma at 100 ug/mL by turbidimetric method; assay type: functional, cell-free; conditions: Oryctolagus cuniculus
Platelet [3] = assay: Inhibition of ionomycin-induced platelet aggregation in rabbit platelet-rich plasma at 100 ug/mL by turbidimetric method; assay type: functional, cell-free; conditions: Oryctolagus cuniculus
P388 = assay: Cytotoxicity against mouse P388 cells by MTT assay; assay type: functional
Platelet [4] = assay: Inhibition of U46619-induced platelet aggregation in rabbit platelet-rich plasma by turbidimetric method; assay type: functional, cell-free; conditions: Oryctolagus cuniculus

IC50 (Platelet [4])	Structure (SMILES)	Activity (Platelet [1])	Activity (Platelet [2])	Activity (Platelet [3])	Activity (P388)
–	CCCCCCCCCCCCCC(=O)OC[C@@H](O)COP(=O)([O-])OCC[N+](C)(C)C	Active	Active	Active	–
60 µM	CCCCCCCCCCCCCCCC(=O)OC[C@@H](O)CO[C@@H]1O[C@H](CO)[C@H](O)[C@H](O)C1O (single isomer, unassigned)	Active	inactive	inactive	>50 µg/mL

Reference: ChEMBL document CHEMBL1158203, “A novel monogalactosylacylglycerol with inhibitory effect on platelet aggregation from the cyanophyceae Oscillatoria rosea” (J Nat Prod, 1996)
